From ChEMBL document CHEMBL1201862, “PubChem BioAssay data set” (2004)
“And” between values parts separate entries of the source, which are not always exact repeats. Identical values can stand only once. Values belong to the compound of their own block, whether it stands above or below them. The source made the active and inactive calls.

Legend:
[1] = Artemis endonuclease inhibitor potency, dose response, biochemical, fluorescence intensity (AID 720701); type: functional;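 further: Artemis endonuclease enzyme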
[2] = target: Serine/threonine-protein phosphatase (Homo sapiens, UniProt Q9BPW0); experiment: PP5 phosphatase inhibitors, dose response, biochemical, fluorescence (AID 2395)
Serine/threonine-protein phosphatase, sequence (Q9BPW0 whole entry): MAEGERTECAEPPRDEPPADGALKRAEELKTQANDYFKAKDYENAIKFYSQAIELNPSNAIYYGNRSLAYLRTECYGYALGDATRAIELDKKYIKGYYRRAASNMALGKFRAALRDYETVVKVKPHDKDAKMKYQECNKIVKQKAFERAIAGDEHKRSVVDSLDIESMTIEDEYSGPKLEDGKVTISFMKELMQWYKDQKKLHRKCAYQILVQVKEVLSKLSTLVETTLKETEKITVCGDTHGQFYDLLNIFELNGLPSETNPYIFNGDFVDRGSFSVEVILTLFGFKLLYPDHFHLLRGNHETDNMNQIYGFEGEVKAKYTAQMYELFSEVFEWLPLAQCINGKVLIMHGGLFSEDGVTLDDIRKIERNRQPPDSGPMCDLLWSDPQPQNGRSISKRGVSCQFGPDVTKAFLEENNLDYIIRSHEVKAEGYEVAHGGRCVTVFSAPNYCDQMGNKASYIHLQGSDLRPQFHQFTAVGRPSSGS

[3] = target: Serine/threonine-protein phosphatase PP1-alpha catalytic subunit (Homo sapiens, UniProt P62136); experiment: PP1 phosphatase inhibitors, dose response, biochemical, fluorescence (AID 2394)
Serine/threonine-protein phosphatase PP1-alpha catalytic subunit, sequence (P62136 whole entry): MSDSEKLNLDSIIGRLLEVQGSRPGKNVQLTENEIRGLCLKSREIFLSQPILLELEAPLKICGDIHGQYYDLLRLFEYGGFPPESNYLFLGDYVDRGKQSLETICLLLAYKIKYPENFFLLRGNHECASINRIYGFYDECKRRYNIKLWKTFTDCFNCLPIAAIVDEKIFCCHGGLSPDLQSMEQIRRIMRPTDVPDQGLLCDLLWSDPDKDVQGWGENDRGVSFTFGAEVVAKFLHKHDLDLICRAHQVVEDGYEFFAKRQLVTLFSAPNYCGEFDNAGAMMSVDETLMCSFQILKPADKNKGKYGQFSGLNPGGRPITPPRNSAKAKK

NADPH oxidase 1 [4] = target: T1, NADPH oxidase 1 (Homo sapiens, UniProt Q9Y5S8); type: functional, cell-based
T1 sequence (Q9Y5S8 whole entry): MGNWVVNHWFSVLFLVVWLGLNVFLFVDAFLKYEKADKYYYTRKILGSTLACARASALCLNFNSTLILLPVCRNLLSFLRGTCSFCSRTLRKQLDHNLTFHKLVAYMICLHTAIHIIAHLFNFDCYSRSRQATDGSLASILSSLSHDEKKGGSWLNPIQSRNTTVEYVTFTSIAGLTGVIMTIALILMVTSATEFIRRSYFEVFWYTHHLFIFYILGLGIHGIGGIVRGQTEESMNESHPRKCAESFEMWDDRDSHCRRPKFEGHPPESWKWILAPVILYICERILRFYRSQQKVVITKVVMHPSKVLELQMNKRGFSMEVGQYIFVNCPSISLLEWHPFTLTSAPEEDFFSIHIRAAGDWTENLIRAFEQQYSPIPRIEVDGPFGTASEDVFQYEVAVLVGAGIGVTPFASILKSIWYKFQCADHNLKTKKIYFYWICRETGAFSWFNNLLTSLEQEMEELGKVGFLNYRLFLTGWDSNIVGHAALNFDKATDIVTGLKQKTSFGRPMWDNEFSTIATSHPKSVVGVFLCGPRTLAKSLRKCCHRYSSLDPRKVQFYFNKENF

NADPH oxidase 1 [5] = target: T1, NADPH oxidase 1; experiment: Late-stage luminescence-based cell-based dose response assay to identify inhibitors of NADPH oxidase 1 (NOX1): Purchased analogs 2.; type: functional
[6] = target: Sphingosine 1-phosphate receptor 3 (Homo sapiens, UniProt Q99500); experiment: Dose Response Cell-Based Assay for Agonists of the Sphingosine 1-Phosphate Receptor 3 (S1P3): Purchased Analogues. [Related pubchem assays: 373, 439 ]; type: functional
Sphingosine 1-phosphate receptor 3, sequence (Q99500 whole entry): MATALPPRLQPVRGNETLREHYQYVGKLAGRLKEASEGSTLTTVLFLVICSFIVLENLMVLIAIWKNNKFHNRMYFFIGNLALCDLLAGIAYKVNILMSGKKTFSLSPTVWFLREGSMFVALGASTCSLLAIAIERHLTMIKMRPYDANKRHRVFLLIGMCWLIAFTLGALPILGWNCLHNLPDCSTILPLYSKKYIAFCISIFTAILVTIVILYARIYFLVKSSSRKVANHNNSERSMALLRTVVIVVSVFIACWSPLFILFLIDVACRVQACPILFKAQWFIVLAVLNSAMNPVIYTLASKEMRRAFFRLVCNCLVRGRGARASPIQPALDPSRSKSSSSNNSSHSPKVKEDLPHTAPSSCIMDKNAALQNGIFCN

[7] = target: T2, Sphingosine 1-phosphate receptor 2 (Homo sapiens, UniProt O95136); experiment: Dose Response Cell-Based Assay for Agonists of the Sphingosine 1-Phosphate Receptor 2 (S1P2): Purchased Analogues. [Related pubchem assays: 1192, 373, 439 ]; type: functional
T2 sequence (O95136 whole entry): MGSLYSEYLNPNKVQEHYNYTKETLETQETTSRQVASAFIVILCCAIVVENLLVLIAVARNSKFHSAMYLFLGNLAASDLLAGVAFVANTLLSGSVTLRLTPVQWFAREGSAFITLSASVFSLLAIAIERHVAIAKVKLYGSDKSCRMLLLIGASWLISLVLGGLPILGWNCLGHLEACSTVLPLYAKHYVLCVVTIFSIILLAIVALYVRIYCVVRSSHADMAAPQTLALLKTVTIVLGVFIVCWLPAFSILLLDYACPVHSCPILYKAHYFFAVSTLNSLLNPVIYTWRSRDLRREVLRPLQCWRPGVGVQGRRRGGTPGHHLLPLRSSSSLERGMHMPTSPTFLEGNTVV

[8] = target: Sphingosine 1-phosphate receptor 1 (Homo sapiens, UniProt P21453); experiment: Dose Response Cell-Based Assay for Agonists of the Sphingosine 1-Phosphate Receptor 1 (S1P1): Purchased Analogues. [Related pubchem assays: 1192, 373, 439 ]; type: functional
Sphingosine 1-phosphate receptor 1, sequence (P21453 whole entry): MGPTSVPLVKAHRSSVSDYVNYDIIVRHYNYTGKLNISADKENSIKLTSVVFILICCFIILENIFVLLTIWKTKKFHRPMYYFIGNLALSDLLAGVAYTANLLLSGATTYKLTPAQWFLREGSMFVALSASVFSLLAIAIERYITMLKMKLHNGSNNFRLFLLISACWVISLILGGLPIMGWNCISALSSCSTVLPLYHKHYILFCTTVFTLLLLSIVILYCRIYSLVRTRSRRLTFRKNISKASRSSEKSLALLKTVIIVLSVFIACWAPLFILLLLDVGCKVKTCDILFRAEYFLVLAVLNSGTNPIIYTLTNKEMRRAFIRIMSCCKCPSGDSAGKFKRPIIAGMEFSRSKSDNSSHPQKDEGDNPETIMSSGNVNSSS

[9] = target: 5-hydroxytryptamine receptor 1A (Homo sapiens, UniProt P08908); type: functional
5-hydroxytryptamine receptor 1A, sequence (P08908 whole entry, the tested form may be a part): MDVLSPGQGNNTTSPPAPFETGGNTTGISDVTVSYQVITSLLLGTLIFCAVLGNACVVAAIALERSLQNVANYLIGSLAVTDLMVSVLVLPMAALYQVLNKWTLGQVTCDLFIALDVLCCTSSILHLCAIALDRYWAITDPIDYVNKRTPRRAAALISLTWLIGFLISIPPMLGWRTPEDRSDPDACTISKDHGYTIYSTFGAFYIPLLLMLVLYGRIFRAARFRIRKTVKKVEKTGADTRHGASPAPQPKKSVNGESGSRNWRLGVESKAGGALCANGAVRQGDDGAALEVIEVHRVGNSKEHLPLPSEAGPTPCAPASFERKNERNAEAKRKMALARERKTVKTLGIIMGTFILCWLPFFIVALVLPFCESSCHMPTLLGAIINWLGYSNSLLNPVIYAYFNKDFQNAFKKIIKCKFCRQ

[10] = CEM21 lymphoblast cell cytotoxicity, dose response, cytotoxicity control for viral fusion inhibitor project, CellTiter-Glo luminescence, cherry-picked (AID 652042); type: functional, cell-based;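 further: potency for signal decrease meaning cytotoxicity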
[11] = target: T2, Sphingosine 1-phosphate receptor 2; experiment: Dose Response Cell Based Assay for Antagonists of the S1P2 Receptor. [Related pubchem assays: 856, 736 ]; type: functional
[12] = inhibitors of clade B AD8 Env fusion, dose response, cell-based, cherry-pick (AID 652062); type: functional;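 further: luciferase signal from cell-cell fusion driven by HIV-1 clade B AD8 Env; potency is for inhibitors of fusion seen as a drop in luminescence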
[13] = target: T3, COUP transcription factor 2 (Homo sapiens, UniProt P24468); experiment: Luminescence-based cell-based high throughput dose response assay to identify inhibitors of COUP-TFII (NR2F2).; type: functional;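 further: HEK293 cells transiently cotransfected with COUP-TFII expression vector and reporter; luciferase reporter luminescence driven by COUP-TFII from the pX2-168 reporter plasmid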
T3 sequence (P24468 whole entry): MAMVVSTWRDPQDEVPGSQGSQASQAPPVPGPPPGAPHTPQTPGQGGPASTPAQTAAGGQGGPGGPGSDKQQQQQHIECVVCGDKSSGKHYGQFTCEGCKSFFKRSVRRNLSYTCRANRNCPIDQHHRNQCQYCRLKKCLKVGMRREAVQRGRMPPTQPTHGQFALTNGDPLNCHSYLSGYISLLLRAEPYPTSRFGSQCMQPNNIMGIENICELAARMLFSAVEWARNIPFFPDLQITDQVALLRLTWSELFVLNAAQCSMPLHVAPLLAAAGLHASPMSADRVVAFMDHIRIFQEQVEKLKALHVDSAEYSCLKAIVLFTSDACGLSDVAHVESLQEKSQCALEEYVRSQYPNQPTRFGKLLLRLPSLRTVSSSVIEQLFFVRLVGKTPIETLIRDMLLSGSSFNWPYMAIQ

[14] = cytotoxicity in KRAS-transformed pancreatic duct cells, primary screen, cell-based, fluorescence, HTS (AID 431); type: functional; details: Homo sapiens;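 further: cell line used: HPDE-C7K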
[15] = cytotoxicity in HPDE-C7 cells, cell-based, fluorescence, HTS (AID 430); type: functional; details: Homo sapiens
[16] = HIV Env cell-cell fusion inhibitors, dose response, HIV entry, plate reader, dry powder (AID 687023); type: functional, cell-based
[17] = ZM109 Env clade C HIV-1 fusion inhibitors, dose response, HeLa effector, CEM target cells, luciferase, cherry-pick (AID 652058); type: functional, cell-based
[18] = inhibitors of HIV Env-driven cell fusion, dose response, cherry-pick (AID 652057); type: functional, cell-based
[19] = CEM21 cell cytotoxicity, dose response, cytotoxicity control, plate reader, dry powder (AID 687026); type: functional, cell-based
INS1 = experiment: beta cell apoptosis inhibitors, cytokine rescue, dose response, luminescence, retest (AID 449756); type: functional, cell-based; details: Rattus norvegicus;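 further: cell death triggered by IL-1 beta plus TNF-alpha plus IFN-gamma mixture; protective hits raise ATP signal compared with cytokine alone wells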
[20] = target: Voltage-gated inwardly rectifying potassium channel KCNH2 (Homo sapiens, UniProt Q12809); experiment: hERG protection from proarrhythmic block, potency, dose response, cell-based, thallium flux (AID 2121); type: ADME
Voltage-gated inwardly rectifying potassium channel KCNH2, sequence (Q12809 whole entry): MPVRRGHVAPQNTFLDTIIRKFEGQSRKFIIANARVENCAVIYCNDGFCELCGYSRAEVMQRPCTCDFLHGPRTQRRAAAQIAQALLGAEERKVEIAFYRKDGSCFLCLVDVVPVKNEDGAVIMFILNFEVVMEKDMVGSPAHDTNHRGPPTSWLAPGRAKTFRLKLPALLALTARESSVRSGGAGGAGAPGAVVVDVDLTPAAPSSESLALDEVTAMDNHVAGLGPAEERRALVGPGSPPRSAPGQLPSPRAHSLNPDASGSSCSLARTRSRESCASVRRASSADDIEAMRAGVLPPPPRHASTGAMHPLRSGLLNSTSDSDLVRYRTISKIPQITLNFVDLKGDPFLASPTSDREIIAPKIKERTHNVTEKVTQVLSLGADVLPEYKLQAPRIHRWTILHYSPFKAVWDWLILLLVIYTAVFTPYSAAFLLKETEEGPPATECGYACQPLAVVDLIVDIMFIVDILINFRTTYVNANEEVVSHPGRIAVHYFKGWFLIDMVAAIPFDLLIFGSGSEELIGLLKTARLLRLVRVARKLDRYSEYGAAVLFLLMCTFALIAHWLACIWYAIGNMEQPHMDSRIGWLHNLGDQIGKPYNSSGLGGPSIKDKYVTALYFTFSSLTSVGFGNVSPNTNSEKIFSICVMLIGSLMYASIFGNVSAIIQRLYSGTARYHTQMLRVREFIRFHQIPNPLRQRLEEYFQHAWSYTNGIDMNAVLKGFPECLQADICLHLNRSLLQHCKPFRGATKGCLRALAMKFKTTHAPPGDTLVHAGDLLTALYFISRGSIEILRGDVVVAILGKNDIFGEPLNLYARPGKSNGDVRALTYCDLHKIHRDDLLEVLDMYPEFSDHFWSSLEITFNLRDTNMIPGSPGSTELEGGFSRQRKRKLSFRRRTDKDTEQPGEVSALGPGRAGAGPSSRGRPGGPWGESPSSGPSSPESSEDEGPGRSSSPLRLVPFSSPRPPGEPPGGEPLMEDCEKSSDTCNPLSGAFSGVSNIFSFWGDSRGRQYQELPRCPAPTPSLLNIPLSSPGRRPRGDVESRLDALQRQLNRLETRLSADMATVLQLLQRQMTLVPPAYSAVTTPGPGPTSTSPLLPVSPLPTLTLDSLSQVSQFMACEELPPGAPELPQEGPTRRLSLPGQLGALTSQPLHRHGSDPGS

[21] = target: T4, Rac GTPase-activating protein 1 (Homo sapiens, UniProt Q9H0H5); experiment: MgcRacGAP GTPase-activating activity inhibitors, confirmation, biochemical, ADP Hunter fluorescence, primary and confirmatory (AID 624330); type: functional
T4 sequence (Q9H0H5 whole entry): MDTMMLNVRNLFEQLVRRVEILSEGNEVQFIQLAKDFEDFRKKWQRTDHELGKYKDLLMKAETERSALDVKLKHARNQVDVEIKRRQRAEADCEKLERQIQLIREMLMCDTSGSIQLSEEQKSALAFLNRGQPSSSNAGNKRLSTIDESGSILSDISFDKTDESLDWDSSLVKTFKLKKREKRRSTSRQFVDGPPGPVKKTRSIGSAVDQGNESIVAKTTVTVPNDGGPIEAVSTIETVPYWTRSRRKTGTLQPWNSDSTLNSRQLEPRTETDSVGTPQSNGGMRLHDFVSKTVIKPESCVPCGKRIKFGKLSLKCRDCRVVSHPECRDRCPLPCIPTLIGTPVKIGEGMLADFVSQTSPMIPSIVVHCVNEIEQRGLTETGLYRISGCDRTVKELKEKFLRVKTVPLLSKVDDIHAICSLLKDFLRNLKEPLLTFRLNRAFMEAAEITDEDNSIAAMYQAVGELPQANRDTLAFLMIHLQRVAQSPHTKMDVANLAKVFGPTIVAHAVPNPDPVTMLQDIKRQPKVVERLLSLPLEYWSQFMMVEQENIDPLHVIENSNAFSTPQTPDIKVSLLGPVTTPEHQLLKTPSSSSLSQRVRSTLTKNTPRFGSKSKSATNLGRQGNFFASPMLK

[22] = target: T5, Neuropeptide Y receptor type 2 (Homo sapiens, UniProt P49146); experiment: NPY-Y2 antagonist potency, selectivity check, dose response, counter-screen for NPY-Y1 antagonist project, cell-based (AID 1278); type: functional
T5 sequence (P49146 whole entry): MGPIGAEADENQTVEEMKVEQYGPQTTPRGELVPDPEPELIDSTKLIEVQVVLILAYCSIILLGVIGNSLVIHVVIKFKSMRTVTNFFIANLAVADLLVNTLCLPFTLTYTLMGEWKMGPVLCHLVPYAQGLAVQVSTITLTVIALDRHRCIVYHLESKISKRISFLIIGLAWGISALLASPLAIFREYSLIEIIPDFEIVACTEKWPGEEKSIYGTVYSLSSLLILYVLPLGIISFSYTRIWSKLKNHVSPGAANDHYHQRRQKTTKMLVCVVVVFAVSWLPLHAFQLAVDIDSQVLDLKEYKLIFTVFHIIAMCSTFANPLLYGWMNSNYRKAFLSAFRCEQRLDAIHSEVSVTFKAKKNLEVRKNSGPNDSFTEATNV

[23] = target: Solute carrier family 12 member 2/member 5 (Homo sapiens, UniProt P55011+Q9H2X9); experiment: KCC2 and NKCC1 inhibition by rubidium flux, cell-based, NKCC1 counter-screen (AID 1734); type: functional, HEK293
Protein Tat = Protein Tat (Human immunodeficiency virus type 1 group M subtype B (isolate HXB2)(HIV-1), UniProt P04608); type: functional;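 further: tat binding to TAR RNA read out by fluorescence polarization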
Protein Tat, sequence (P04608 whole entry): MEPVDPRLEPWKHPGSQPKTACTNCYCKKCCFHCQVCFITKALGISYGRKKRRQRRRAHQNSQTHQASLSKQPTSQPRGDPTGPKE

[24] = target: Aryl hydrocarbon receptor (Homo sapiens, UniProt P35869); experiment: Luminescence-based cell-based high throughput dose response assay for activators of the Aryl Hydrocarbon Receptor (AHR). [Related pubchem assays: 2796 (Primary screen (AHR activators in singlicate)), 2845 (Confirmation screen (AHR activators in triplicate)), 434939 (Counterscreen (PXR activators in triplicate)), 2804 (Summary (AHR activators))]; type: ADME
Cytochrome P450 3A4 = Cytochrome P450 3A4 (Homo sapiens, UniProt P08684);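 further: CYP3A4 tested as one member of a cytochrome P450 panel screen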
Cytochrome P450 3A4, sequence (P08684 whole entry): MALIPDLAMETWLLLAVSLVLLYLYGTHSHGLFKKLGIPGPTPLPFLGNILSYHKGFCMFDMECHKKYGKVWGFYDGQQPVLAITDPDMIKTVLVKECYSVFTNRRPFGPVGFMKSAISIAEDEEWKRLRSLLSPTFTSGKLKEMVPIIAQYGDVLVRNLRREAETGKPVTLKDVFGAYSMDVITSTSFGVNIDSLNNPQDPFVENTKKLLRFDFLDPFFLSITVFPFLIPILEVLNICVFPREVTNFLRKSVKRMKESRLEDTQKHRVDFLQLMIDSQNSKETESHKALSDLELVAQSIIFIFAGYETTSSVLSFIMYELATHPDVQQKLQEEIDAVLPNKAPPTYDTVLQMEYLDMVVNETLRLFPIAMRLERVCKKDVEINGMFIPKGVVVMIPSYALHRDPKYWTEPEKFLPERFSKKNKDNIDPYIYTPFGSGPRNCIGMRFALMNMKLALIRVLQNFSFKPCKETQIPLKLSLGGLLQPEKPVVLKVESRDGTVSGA

Cytochrome P450 2D6 = Cytochrome P450 2D6 (Homo sapiens, UniProt P10635);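 further: CYP2D6 member of a cytochrome P450 panel assay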
[25] = HepG2 cell cytotoxicity, dose response, cytotoxicity control, cherry-picked samples (AID 1159577); type: functional, cell-based
[26] = Plasmodium falciparum Dd2 Sybr green parasite growth Measured in Cell-Based and Microorganism Combination System Using Plate Reader - 2153-01_Inhibitor_Dose_DryPowder_Activity_Set3.; type: functional
[27] = P. falciparum Dd2 growth inhibitors, dose response, SYBR Green, cherry-picked samples (AID 1159567); type: functional, cell-based
[28] = P. falciparum 3D7-ScDHODH growth inhibitors, dose response, SYBR Green, dry powder samples (AID 1159570); type: functional, cell-based;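 further: parasite growth measured after 72 hours of compound exposure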
[29] = P. falciparum ATP4 D1247Y mutant growth inhibitors, dose response, NITD609-resistant line, SYBR Green, dry powder (AID 1159571); type: functional, cell-based;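 further: parasites synchronized at ring stage by sorbitol before testing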
[30] = P. falciparum Dd2 growth inhibitors, dose response, SYBR Green, dry powder samples, set 9 (AID 1159568); type: functional, cell-based
[31] = P. falciparum Dd2 growth inhibitors, dose response, SYBR Green, dry powder samples (AID 1159566); type: functional, cell-based;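 further: potency for growth inhibition with lower SYBR green DNA signal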
cells = type: functional, cell-based; details: INS-1E
[32] = Dose-response inhibition of insulin secretion in a rat insulinoma line at 5 mM glucose (AID 1117331); type: functional, cell-based; details: INS-1E
[33] = HeLa 2N DNA content increase, dose response, cell-based, IC50 (AID 1117349); type: functional
[34] = HeLa 4N DNA content increase, dose response, cell-based, IC50 (AID 1117351); type: functional
[35] = RKO cell viability reduction, dose response, CellTiter-Glo luminescence (AID 1117322); type: functional
[36] = SNU-C1 cell viability reduction, dose response, CellTiter-Glo luminescence (AID 1117323); type: functional, cell-based
[37] = cytotoxicity toward HCT116 cells – cell-based, CellTiter-Glo luminescence, IC50, dose response (AID 1117332); type: functional; details: HCT-116
[38] = CellTiter-Glo luminescent dose response of DLD-1 viability loss (AID 1117352); type: functional
[39] = cytotoxicity toward HT-29 cells – cell-based, CellTiter-Glo luminescence, IC50, dose response (AID 1117330); type: functional
[40] = Concentration-dependent survival of SW480 colon cancer line, luminescence detection with CellTiter-Glo, half-maximal inhibitory concentration (AID 1117338); type: functional
[41] = cytotoxicity toward Colo320 cells – cell-based, CellTiter-Glo luminescence, IC50, dose response (AID 1117334); type: functional; details: COLO 320

IC50 [1]: > 20 µM (inactive)
IC50 [2]: 9.67 µM (active)
IC50 [3]: > 67 µM (not active)
SMILES: CCCN(CC1CC1)c1nc(N)c2c(N)nc(OC)cc2c1C#N

IC50 (NADPH oxidase 1 [5]): 6.22 µM (active)
SMILES: CC(=O)Nc1ccc(/C=N/Nc2ccccc2)cc1

IC50 [21]: 153 µM (active)
SMILES: O=[N+]([O-])c1ccccc1OCCNCc1ccccc1
EC50 [20]: 4.78 µM (active)

IC50 [22]: > 35 µM (not active)
IC50 [21]: 39.4 µM (active)
SMILES: COc1cccc(Oc2c[nH]nc2-c2ccc(O)cc2O)c1

IC50 (Protein Tat): > 100 µM (inconclusive)
SMILES: COc1ccccc1NC(=O)CN(Cc1ccco1)C(=O)c1cccs1

The remaining lines, values behind:

SMILES: O=C(Oc1cccc([N+](=O)[O-])c1)c1sc2ccccc2c1Cl
IC50 (NADPH oxidase 1 [4]): > 17 µM (not active)

SMILES: CCC(C)NC(=O)c1cc(-c2ccc(C)cc2)on1 (configuration not stated)
EC50 [6]: > 50 µM (not active)
EC50 [7]: > 10 µM (not active)
EC50 [8]: > 50 µM (not active)

SMILES: CCOC(=O)c1c(C)nc(-c2ccccc2)nc1NC(=O)CC
EC50 [9]: > 50 µM (not active)

SMILES: COc1ccc2c(c1)[nH]c1c(N3CCN(Cc4ccc5c(c4)OCO5)CC3)ncnc12
AC50 [10]: 38 µM (active)
IC50 [11]: 4.01 µM (active)
AC50 [12]: 4.68 µM (active)
IC50 [13]: 6.68 µM (active)
EC50 [14]: 14.8 µM (active)
EC50 [15]: 16.7 µM (active)
AC50 [16]: 2.72 µM (active) and 5.39 µM (active)
AC50 [17]: 6.42 µM (active)
AC50 [18]: 3.89 µM (active)
AC50 [19]: 35.8 µM (active) and 32.4 µM (active)
AC50 (INS1): 2.06 µM (active)

SMILES: Cc1cnc(NC(=O)CSc2nnc(Cc3ccccc3)o2)s1
IC50 [23]: 19.7 µM (active)

SMILES: Cc1cc(C)nc(Nc2ncc(O)n2-c2ccccc2)n1
EC50 [24]: 9.35 µM (active)
AC50 (Cytochrome P450 3A4): inconclusive
AC50 (Cytochrome P450 2D6): inconclusive

SMILES: CCCNC(=O)N1[C@H](C#N)[C@H](c2ccc(-c3ccccc3F)cc2)[C@H]1CO
AC50 [25]: > 42 µM (inactive)
AC50 [26]: 0.0589 µM (active)
AC50 [27]: < 0.35 µM (active)
AC50 [28]: 14.9 µM (active)
AC50 [29]: 0.0114 µM (active)
AC50 [30]: 0.0988 µM (active)
AC50 [31]: 0.00986 µM (active)

SMILES: CC(CC1c2ccccc2CCc2ccccc21)CN(C)C (configuration not stated) [BUTRIPTYLINE]
IC50 (cells): > 33.3 µM (inactive)
IC50 [32]: 3.64 µM (active)
IC50 [33]: > 10 µM (inactive)
IC50 [34]: > 10 µM (inactive)

SMILES: CCCCCCOc1ccccc1C(N)=O [EXALAMIDE]
IC50 [35]: > 6.67 µM (inactive)
IC50 [36]: 9.36 µM (inactive)
IC50 [37]: > 6.67 µM (inactive)
IC50 [38]: 8.67 µM (inactive)
IC50 [39]: > 20 µM (inactive)
IC50 [40]: > 20 µM (inactive)
IC50 [41]: > 20 µM (inactive)
